The subject of the test is sfGFP^151(AXC). Nature of the test: Optimization of unnatural ribonucleotide triphosphate concentrations (sfGFP fluorescence and protein shift). It counts as cell-based, E. coli. Here is the method: Examples 1A, 1B, and 2 identified dCNMO-dTPT3 as a competent UBP for the storage of information, and TAT1TP and NaMTP or 5FMTP as competent ribonucleoside triphosphates for its retrieval. Upon transformation with the same plasmids used above, 10 μM dTPT3TP and 25 μM dCNMOTP were provided in the growth media, which was then also supplemented with TAT1TP at concentrations ranging from 100 μM to 12.5 μM, and either NaMTP or 5FMTP at concentrations ranging from 200 μM to 12.5 μM, all in series of 2-fold dilutions, and after the addition of 1 mM AzK, the cells were induced to express sfGFP. […] In both cases, fluorescence was higher at lower concentrations of NaMTP or 5FMTP (due to increased production of contaminating natural sfGFP, see below). Additionally, cells generally produced higher fluorescence at higher concentrations of TAT1TP. […] Protein production was again quantified via the gel shift assay (FIG. 6C and FIG. 6D). Generally, as the concentration of NaMTP decreased below 200 μM, incrementally lower fidelity of AzK incorporation into sfGFP was observed, while with use of 5FMTP this reduction in fidelity was only observed below a concentration of 50 μM. Clearly lower concentrations of 5FMTP can be used without compromising fidelity. Cells provided with a high concentration of 5FMTP (≥50 µM) produced high protein shifts at all concentrations of TAT1TP explored (100 μM, 50 μM, 25 μM, or 12.5 μM).
Optimization of in vivo Translation Conditions. An overnight culture of the SSO strain ML2 carrying the pGEX-MbPylRS TetR plasmid was grown in 2×YT supplemented with 50 mM potassium phosphate, […] chloramphenicol and 100 μg/mL carbenicillin (herein referred to in this section as “media”), then diluted back to an OD600 of 0.03 in the same media and grown to an OD600 of 0.4-0.6. The culture was then chilled with shaking over ice-water for 15 min then pelleted by centrifugation at 3,200×g for 10 min. Cells were then resuspended and washed with ice-cold ddH2O twice then resuspended in ice-cold ddH2O to an OD600 of 55-65. The electrocompetent cells (50 μL) and ˜1 ng of Golden Gate assembled plasmid with the UBP within the sfGFP and tRNAPyl genes (see Golden Gate Assembly of Plasmids) were transferred to a pre-chilled electroporation cuvette (0.2-cm-gap), then electroporated (Gene Pulser II; Bio-Rad) according to manufacturer's recommendations (voltage […], capacitor 2.5 μF, resistor 200Ω), and then immediately diluted with 950 μL of media. […] The culture was monitored for cell growth (Envision 2103 Multilabel Plate Reader with a 590/20 nm filter) and then collected at an OD600˜1.0. […]

Molecules are shown by their SMILES.

Take `COc1cc(C)c(F)cc1[C@@H]1O[C@H](COP(=O)(O)OP(=O)(O)OP(=O)(O)O)[C@@H](O)[C@H]1O` [Compound 5FMTP]: the “Concentration for combined optimization of protein purity and yield” value (5FMTP and TAT1TP pair) is 50 µM. Where the note is “with TAT1TP 12.5-100 μM”, the “XTP concentration below which lower fidelity of AzK incorporation into sfGFP was observed” value turned out to be 50 µM.

(Values after US11879145B2, “Reagents and methods for replication, transcription, and translation in semi-synthetic organisms” (The Scripps Research Institute, priority 2019, dated 2024).)
